The supplement of paper PMC7840683
Counter-ions that a name gives are not always drawn. ± gives the standard deviation of the averaged measurements.

Tested on: HepaRG
Test: LDH release cytotoxicity, % of total lysis control; higher = more cytotoxic
Conditions: 48 h
Method in brief: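 Single-lot HepaRG cells on collagen I-coated 96-well plates were exposed for 48 h in duplicate, in serum-free induction medium with 0.5% DMSO, to eight-point half-log series (test chemicals top 100 µM). Total lysis wells received 0.1% Triton X, and LDH leakage into 50 µL spent medium was read as resorufin fluorescence (CytoTox-ONE, Tecan Safire). Percent cytotoxicity was normalized to on-plate vehicle and total lysis controls and averaged over the duplicates.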

SMILES	LDH release cytotoxicity (0.03162 µM)	LDH release cytotoxicity (0.1 µM)	LDH release cytotoxicity (0.3162278 µM)	LDH release cytotoxicity (1 µM)	LDH release cytotoxicity (3.16228 µM)	LDH release cytotoxicity (10 µM)	LDH release cytotoxicity (31.6228 µM)	LDH release cytotoxicity (100 µM)	LDH release cytotoxicity (0.0317809 µM)	LDH release cytotoxicity (0.1005 µM)	LDH release cytotoxicity (0.317809 µM)	LDH release cytotoxicity (1.005 µM)	LDH release cytotoxicity (3.17809 µM)	LDH release cytotoxicity (10.05 µM)	LDH release cytotoxicity (31.7809 µM)	LDH release cytotoxicity (100.5 µM)	LDH release cytotoxicity (0.031623 µM)	LDH release cytotoxicity (0.316228 µM)
COP(=O)(NC(C)=O)SC (centres undefined) [Acephate]	-0.866 ± 0.12%	-0.804 ± 0.21%	-0.558 ± 0.78%	-0.625 ± 0.92%	-0.512 ± 0.7%	0.394 ± 0.4%	0.786 ± 1.8%	1.92 ± 1%	–	–	–	–	–	–	–	–	–	–
CC(N)=O [Acetamide]	-1.42 ± 0.94%	-0.0289 ± 1.8%	-1.35 ± 0.33%	-2.5 ± 0.18%	-2.19 ± 1.4%	-0.925 ± 0.15%	-0.0914 ± 0.22%	1.3 ± 0.62%	–	–	–	–	–	–	–	–	–	–
CC(=O)Nc1ccc(O)cc1 [Acetaminophen]	-3.14 ± 0.072%	-3.633 ± 0.0048%	-2.81 ± 0.035%	-3.06 ± 0.61%	-3.13 ± 0.24%	-3.2 ± 0.3%	-2.512 ± 0.0032%	-1.82 ± 0.68%	–	–	–	–	–	–	–	–	–	–
CC(=NC#N)N(C)Cc1ccc(Cl)nc1 [Acetamiprid]	-2.01 ± 1.8%	-2.67 ± 0.84%	-2.61 ± 0.31%	-2.64 ± 0.13%	-2.01 ± 0.025%	-2.44 ± 1.2%	-2.262 ± 0.022%	0.254 ± 0.19%	–	–	–	–	–	–	–	–	–	–
CC(=O)O [Acetic acid]	–	–	–	–	–	–	–	–	-1.92 ± 1.2%	-2.2 ± 1.2%	-1.18 ± 0.69%	-1.23 ± 1.5%	-0.0523 ± 1.1%	-0.22 ± 0.88%	-0.0673 ± 1.4%	1.25 ± 1.2%	–	–
CCOCN(C(=O)CCl)c1c(C)cccc1CC [Acetochlor]	-0.907 ± 0.26%	-1.94 ± 0.45%	-0.877 ± 0.019%	-0.999 ± 0.47%	-1.55 ± 0.19%	-0.606 ± 0.56%	0.268 ± 0.58%	56.1 ± 2.4%	–	–	–	–	–	–	–	–	–	–
CC(=O)c1ccccc1 [Acetophenone]	-2.51 ± 1.2%	-2.44 ± 0.99%	-2.72 ± 0.4%	-2 ± 1.3%	-2.1 ± 0.76%	-1.71 ± 1%	-1.38 ± 0.1%	-0.356 ± 0.56%	–	–	–	–	–	–	–	–	–	–
CCCCOC(=O)CC(CC(=O)OCCCC)(OC(C)=O)C(=O)OCCCC [Acetyl tributyl citrate]	-1.13 ± 2%	-1.34 ± 0.08%	-1.35 ± 0.17%	-1.86 ± 1.8%	-1.7 ± 0.77%	-0.33 ± 1.3%	-0.458 ± 0.058%	0.439 ± 0.83%	–	–	–	–	–	–	–	–	–	–
CCOC(=O)CC(CC(=O)OCC)(OC(C)=O)C(=O)OCC [Acetyltriethyl citrate]	-2.01 ± 1.3%	-1.76 ± 0.41%	-1.48 ± 0.41%	-1.13 ± 1.1%	-0.615 ± 0.31%	-1.09 ± 1.7%	0.655 ± 0.037%	0.942 ± 0.48%	–	–	–	–	–	–	–	–	–	–
CSC(=O)c1cccc2nnsc12 [Acibenzolar-S-methyl]	-0.11 ± 0.5%	-0.574 ± 0.66%	-0.682 ± 0.56%	-0.324 ± 0.3%	-0.302 ± 0.16%	-0.414 ± 0.83%	0.737 ± 0.21%	1.4 ± 0.15%	–	–	–	–	–	–	–	–	–	–
C=CC(N)=O [Acrylamide]	-0.83 ± 0.15%	-1.21 ± 0.58%	-1.5 ± 0.3%	-1.596 ± 0.0065%	-1.78 ± 0.096%	-0.843 ± 0.56%	-1.75 ± 0.16%	-0.493 ± 0.11%	–	–	–	–	–	–	–	–	–	–
CCc1cccc(CC)c1N(COC)C(=O)CCl [Alachlor]	–	-1.83 ± 1.3%	–	-2.4 ± 0.71%	-2.62 ± 0.18%	-2.23 ± 0.35%	-2.51 ± 0.88%	-0.425 ± 0.47%	–	–	–	–	–	–	–	–	-1.16 ± 0.26%	-2.33 ± 2.1%
CSC(C)(C)CN=O [Aldicarb oxime]	-1.16 ± 1.1%	-1.16 ± 0.73%	-0.361 ± 1.2%	0.251 ± 0.83%	-0.674 ± 0.8%	0.43 ± 0.56%	0.225 ± 0.043%	0.822 ± 0.091%	–	–	–	–	–	–	–	–	–	–
CNC(=O)ON=CC(C)(C)SC [Aldicarb]	-1.61 ± 1.2%	-1.37 ± 0.9%	-2.06 ± 0.65%	-1.68 ± 0.72%	-1.686 ± 0.0048%	-0.703 ± 0.55%	-1.04 ± 1%	-0.341 ± 0.039%	–	–	–	–	–	–	–	–	–	–
ClC1=C(Cl)C2(Cl)C3C4C=CC(C4)C3C1(Cl)C2(Cl)Cl (centres undefined) [Aldrin]	-1.03 ± 0.13%	-1.22 ± 0.11%	-1.42 ± 0.63%	-2.25 ± 0.36%	-1.19 ± 0.49%	-0.76 ± 1.3%	-1.01 ± 0.71%	3.93 ± 0.095%	–	–	–	–	–	–	–	–	–	–
C=CCC1=C(C)C(OC(=O)C2C(C=C(C)C)C2(C)C)CC1=O (centres undefined) [Allethrin]	0.254 ± 1.2%	-0.919 ± 0.37%	-1.19 ± 0.46%	-0.231 ± 0.68%	-1.87 ± 0.067%	-1.69 ± 0.11%	-0.447 ± 0.21%	-0.904 ± 0.67%	–	–	–	–	–	–	–	–	–	–
CCNc1nc(NC(C)C)nc(SC)n1 [Ametryn]	-0.705 ± 0.77%	-1.179 ± 0.0064%	-1.07 ± 0.34%	-1.09 ± 0.47%	-1.44 ± 0.021%	-0.756 ± 0.46%	-0.965 ± 0.14%	-0.133 ± 0.12%	–	–	–	–	–	–	–	–	–	–
Nc1nc(N)c2nc(CNc3ccc(C(=O)NC(CCC(=O)O)C(=O)O)cc3)cnc2n1 (centres undefined) [Aminopterin]	-11.8 ± 0.096%	-7.61 ± 0.6%	-7.45 ± 1.3%	-7.83 ± 0.65%	-7.31 ± 0.2%	-9.44 ± 0.67%	-9.84 ± 0.9%	-9.19 ± 0.42%	–	–	–	–	–	–	–	–	–	–
